According to patent US5595730A, “Lactate dehydrogenase inhibitors in cosmetic compositions” (priority 1996, dated 1997):
Like-named read-outs stand apart in the source and are kept apart here. Values belong to the compound of their own block, whether it stands above or below them.

Key:
[1] = test system: Normal human epidermal keratinocytes (NHEK); assay: Keratinocyte proliferation (DNA content, fluorometric); assay type: cell-based; details: for activation at 70 µM: 0.07 mM
Method: Normal human epidermal keratinocytes (NHEK) derived from neonatal foreskin were used for all experiments. Media were purchased from Clonetics Corp., San Diego, Calif. Cell stocks frozen in passage 2 were grown in Keratinocyte Growth Medium (KGM) and passaged when 70-80% confluent. Cells were seeded in 96 well plates (Corning) at a density of 7500 cells/well in KGM. After 24 hours, cells were rinsed and dosed with test compounds in 200 μl of Keratinocyte Basal Medium (KBM). Plates were incubated for three days at 37° C., 5% CO2. Cell proliferation was estimated by assaying for DNA content by a fluorometric method described by Rago et al. (Analytical Biochemistry, 191:31-34, 1990). Medium was removed and cells were rinsed with phosphate buffered saline solution. 100 μl of sterile distilled water was added to each well and plates were frozen at -70° C. for one and a half hours. Plates were thawed for one hour at which time 100 μl of a 20 ug/ml solution of Bisbenzimide H33258 fluorochrome (Calbiochem Corp., La Jolla, Calif.) was added to each well. The fluorochrome was prepared just prior to use in 10 mM Tris, 1 mM EDTA, 4M NaCI, pH 7.4. Plates were read in a Millipore Cytofluor fluorescent plate reader to quantify DNA (excitation 360 nm, emission 460 nm). Percent increase over control was calculated from blank-corrected readings as (treated-untreated)/(untreated)*100. Each data point in the Tables below represents a mean of 5 or 6 replicates.
The procedure of Example 2 was repeated except that various co-active ingredients were tested for their ability to stimulate keratinocyte proliferation.
The procedure of Example 2 was repeated to test the effect of combination of an LDH inhibitor with another carboxylic acid on keratinocyte proliferation.

procollagen 1 = assay: Assay for collagen synthesis (secreted procollagen 1 immunoassay, fibroblasts); details: actives 0.2 to 20 mM, serum-free medium, 48 hours
Method: Neonatal human dermal fibroblasts were purchased from Clonetics Corp., San Diego, Calif. All materials for cell culture were purchased from Life Technologies, N.Y. Cells were maintained in DMEM with 10% fetal bovine serum and used in passages 5-10. Confluent 96-well plates containing fibroblasts were treated with actives (0.2 to 20 mM) in serum-free medium for 48 hours. […] This was carried out in a BioDot SF apparatus according to the manufacturer's instructions (BioRad Labs, CA) and the blot was developed using a Vectastain Kit (PK6104, Vector Labs, CA) as per the manufacturer's directions. Color intensity was quantitated using an Ultroscan XL densitometer (Pharmacia LKB). Fold increase was calculated as (density of treated)/untreated.

SMILES: O=C(O)CC(=O)C(=O)O [Oxaloacetate]
activation at 2 µM ([1]; Homo sapiens, NHEK, 72 h, read-out: Keratinocyte Proliferation (% increase over Control), Table 5, Test A, 0.002 mM): 11%
activation at 20 µM ([1]; Homo sapiens, NHEK, 72 h, read-out: Keratinocyte Proliferation (% increase over Control), Table 5, Test A, 0.02 mM): 15%
activation at 200 µM ([1]; Homo sapiens, NHEK, 72 h, read-out: Keratinocyte Proliferation (% increase over Control), Table 5, Test A, 0.2 mM): 22%
activation at 2000 µM ([1]; Homo sapiens, NHEK, 72 h, read-out: Keratinocyte Proliferation (% increase over Control), Table 5, Test A, 2.0 mM): 53%
activation at 10000 µM ([1]; Homo sapiens, NHEK, 72 h, read-out: Keratinocyte Proliferation (% increase over Control), Table 5, Test A, 10 mM): 110%
activation at 20 µM ([1]; Homo sapiens, NHEK, 72 h, read-out: Keratinocyte Proliferation (% increase over Control), Table 5, Test B, 0.02 mM): 30%
activation at 200 µM ([1]; Homo sapiens, NHEK, 72 h, read-out: Keratinocyte Proliferation (% increase over Control), Table 5, Test B, 0.2 mM): 20%
activation at 2000 µM ([1]; Homo sapiens, NHEK, 72 h, read-out: Keratinocyte Proliferation (% increase over Control), Table 5, Test B, 2.0 mM): 16%
activation at 10000 µM ([1]; Homo sapiens, NHEK, 72 h, read-out: Keratinocyte Proliferation (% increase over Control), Table 5, Test B, 10 mM): 70%
activation at 20000 µM ([1]; Homo sapiens, NHEK, 72 h, read-out: Keratinocyte Proliferation (% increase over Control), Table 5, Test B, 20 mM): 44%
activation at 150 µM ([1]; Homo sapiens, NHEK, 72 h, read-out: Keratinocyte Proliferation (% increase over Control), Table 5, Test C, 0.15 mM): 13%
activation at 300 µM ([1]; Homo sapiens, NHEK, 72 h, read-out: Keratinocyte Proliferation (% increase over Control), Table 5, Test C, 0.3 mM): 18%
activation at 600 µM ([1]; Homo sapiens, NHEK, 72 h, read-out: Keratinocyte Proliferation (% increase over Control), Table 5, Test C, 0.6 mM): 20%
activation at 1250 µM ([1]; Homo sapiens, NHEK, 72 h, read-out: Keratinocyte Proliferation (% increase over Control), Table 5, Test C, 1.25 mM): 18%
activation at 2500 µM ([1]; Homo sapiens, NHEK, 72 h, read-out: Keratinocyte Proliferation (% increase over Control), Table 5, Test C, 2.5 mM): 40%
activation at 5000 µM ([1]; Homo sapiens, NHEK, 72 h, read-out: Keratinocyte Proliferation (% increase over Control), Table 5, Test C, 5.0 mM): 35%
activation at 10000 µM ([1]; Homo sapiens, NHEK, 72 h, read-out: Keratinocyte Proliferation (% increase over Control), Table 5, Test C, 10 mM): 0%
activation at 80 µM ([1]; Homo sapiens, NHEK, 72 h, read-out: Keratinocyte Proliferation (% increase over Control), Table 5, Test D, 0.08 mM): 56%
activation at 150 µM ([1]; Homo sapiens, NHEK, 72 h, read-out: Keratinocyte Proliferation (% increase over Control), Table 5, Test D, 0.15 mM): 76%
activation at 300 µM ([1]; Homo sapiens, NHEK, 72 h, read-out: Keratinocyte Proliferation (% increase over Control), Table 5, Test D, 0.3 mM): 63%
activation at 600 µM ([1]; Homo sapiens, NHEK, 72 h, read-out: Keratinocyte Proliferation (% increase over Control), Table 5, Test D, 0.6 mM): 48%
activation at 1250 µM ([1]; Homo sapiens, NHEK, 72 h, read-out: Keratinocyte Proliferation (% increase over Control), Table 5, Test D, 1.25 mM): 37%
activation at 2500 µM ([1]; Homo sapiens, NHEK, 72 h, read-out: Keratinocyte Proliferation (% increase over Control), Table 5, Test D, 2.5 mM): 37%
activation at 5000 µM ([1]; Homo sapiens, NHEK, 72 h, read-out: Keratinocyte Proliferation (% increase over Control), Table 5, Test D, 5.0 mM): 52%
activation at 10000 µM ([1]; Homo sapiens, NHEK, 72 h, read-out: Keratinocyte Proliferation (% increase over Control), Table 5, Test D, 10 mM): 52%
Collagen Synthesis, Maximum fold over Control (procollagen 1): 3.0 fold

Collagen Synthesis, Maximum fold over Control (procollagen 1): 2.0 fold
SMILES: CC(=O)O [Acetate]
activation at 2 µM ([1]; Homo sapiens, NHEK, 72 h, Table 4, Test A, 0.002 mM, read-out: Keratinocyte Proliferation (% increase over control)): 22%
activation at 20 µM ([1]; Homo sapiens, NHEK, 72 h, Table 4, Test A, 0.02 mM, read-out: Keratinocyte Proliferation (% increase over control)): 31%
activation at 200 µM ([1]; Homo sapiens, NHEK, 72 h, Table 4, Test A, 0.2 mM, read-out: Keratinocyte Proliferation (% increase over control)): 43%
activation at 2000 µM ([1]; Homo sapiens, NHEK, 72 h, Table 4, Test A, 2.0 mM, read-out: Keratinocyte Proliferation (% increase over control)): 46%
activation at 10000 µM ([1]; Homo sapiens, NHEK, 72 h, Table 4, Test A, 10 mM, read-out: Keratinocyte Proliferation (% increase over control)): 63%
activation at 200 µM ([1]; Homo sapiens, NHEK, 72 h, Table 4, Test B, 0.2 mM, read-out: Keratinocyte Proliferation (% increase over control)): 12%
activation at 2000 µM ([1]; Homo sapiens, NHEK, 72 h, Table 4, Test B, 2.0 mM, read-out: Keratinocyte Proliferation (% increase over control)): 19%
activation at 10000 µM ([1]; Homo sapiens, NHEK, 72 h, Table 4, Test B, 10 mM, read-out: Keratinocyte Proliferation (% increase over control)): 0%
activation at 20000 µM ([1]; Homo sapiens, NHEK, 72 h, Table 4, Test B, 20 mM, read-out: Keratinocyte Proliferation (% increase over control)): 0%
activation at 156 µM ([1]; Homo sapiens, NHEK, 72 h, Table 4, Test C, 0.156 mM, read-out: Keratinocyte Proliferation (% increase over control)): 13%
activation at 313 µM ([1]; Homo sapiens, NHEK, 72 h, Table 4, Test C, 0.313 mM, read-out: Keratinocyte Proliferation (% increase over control)): 32%
activation at 625 µM ([1]; Homo sapiens, NHEK, 72 h, Table 4, Test C, 0.625 mM, read-out: Keratinocyte Proliferation (% increase over control)): 9%
activation at 1250 µM ([1]; Homo sapiens, NHEK, 72 h, Table 4, Test C, 1.25 mM, read-out: Keratinocyte Proliferation (% increase over control)): 2%
activation at 2500 µM ([1]; Homo sapiens, NHEK, 72 h, Table 4, Test C, 2.5 mM, read-out: Keratinocyte Proliferation (% increase over control)): 11%
activation at 5000 µM ([1]; Homo sapiens, NHEK, 72 h, Table 4, Test C, 5.0 mM, read-out: Keratinocyte Proliferation (% increase over control)): 0%
activation at 10000 µM ([1]; Homo sapiens, NHEK, 72 h, Table 4, Test C, 10 mM, read-out: Keratinocyte Proliferation (% increase over control)): 0%
activation at 70 µM ([1]; Homo sapiens, NHEK, 72 h, Table 4, Test D, read-out: Keratinocyte Proliferation (% increase over control)): 50%
activation at 156 µM ([1]; Homo sapiens, NHEK, 72 h, Table 4, Test D, 0.156 mM, read-out: Keratinocyte Proliferation (% increase over control)): 47%
activation at 313 µM ([1]; Homo sapiens, NHEK, 72 h, Table 4, Test D, 0.313 mM, read-out: Keratinocyte Proliferation (% increase over control)): 56%
activation at 625 µM ([1]; Homo sapiens, NHEK, 72 h, Table 4, Test D, 0.625 mM, read-out: Keratinocyte Proliferation (% increase over control)): 57%
activation at 1250 µM ([1]; Homo sapiens, NHEK, 72 h, Table 4, Test D, 1.25 mM, read-out: Keratinocyte Proliferation (% increase over control)): 42%
activation at 2500 µM ([1]; Homo sapiens, NHEK, 72 h, Table 4, Test D, 2.5 mM, read-out: Keratinocyte Proliferation (% increase over control)): 44%
activation at 5000 µM ([1]; Homo sapiens, NHEK, 72 h, Table 4, Test D, 5.0 mM, read-out: Keratinocyte Proliferation (% increase over control)): 18%
activation at 70 µM ([1]; Homo sapiens, NHEK, 72 h, Table 4, Test E, read-out: Keratinocyte Proliferation (% increase over control)): 0%
activation at 156 µM ([1]; Homo sapiens, NHEK, 72 h, Table 4, Test E, 0.156 mM, read-out: Keratinocyte Proliferation (% increase over control)): 6%
activation at 313 µM ([1]; Homo sapiens, NHEK, 72 h, Table 4, Test E, 0.313 mM, read-out: Keratinocyte Proliferation (% increase over control)): 24%
activation at 313 µM ([1]; Homo sapiens, NHEK, 72 h, Table 4, Test F, 0.313 mM, read-out: Keratinocyte Proliferation (% increase over control)): 5%
activation at 625 µM ([1]; Homo sapiens, NHEK, 72 h, Table 4, Test F, 0.625 mM, read-out: Keratinocyte Proliferation (% increase over control)): 34%
activation at 1250 µM ([1]; Homo sapiens, NHEK, 72 h, Table 4, Test F, 1.25 mM, read-out: Keratinocyte Proliferation (% increase over control)): 35%
activation at 2500 µM ([1]; Homo sapiens, NHEK, 72 h, Table 4, Test F, 2.5 mM, read-out: Keratinocyte Proliferation (% increase over control)): 33%
activation at 5000 µM ([1]; Homo sapiens, NHEK, 72 h, Table 4, Test F, 5.0 mM, read-out: Keratinocyte Proliferation (% increase over control)): 7%
activation at 10000 µM ([1]; Homo sapiens, NHEK, 72 h, Table 4, Test F, 10 mM, read-out: Keratinocyte Proliferation (% increase over control)): 0%
activation at 313 µM ([1]; Homo sapiens, NHEK, 72 h, Table 4, Test G, 0.313 mM, read-out: Keratinocyte Proliferation (% increase over control)): 38%
activation at 625 µM ([1]; Homo sapiens, NHEK, 72 h, Table 4, Test G, 0.625 mM, read-out: Keratinocyte Proliferation (% increase over control)): 11%
activation at 1250 µM ([1]; Homo sapiens, NHEK, 72 h, Table 4, Test G, 1.25 mM, read-out: Keratinocyte Proliferation (% increase over control)): 24%
activation at 2500 µM ([1]; Homo sapiens, NHEK, 72 h, Table 4, Test G, 2.5 mM, read-out: Keratinocyte Proliferation (% increase over control)): 12%
activation at 5000 µM ([1]; Homo sapiens, NHEK, 72 h, Table 4, Test G, 5.0 mM, read-out: Keratinocyte Proliferation (% increase over control)): 18%
activation at 10000 µM ([1]; Homo sapiens, NHEK, 72 h, Table 4, Test G, 10 mM, read-out: Keratinocyte Proliferation (% increase over control)): 0%
Keratinocyte proliferation, % Increase Over Control ([1]; Table 7, single agent alone, 0.156 mM): 41%
Keratinocyte proliferation, % Increase Over Control ([1]; Table 7, single agent alone, 0.313 mM): 28%
Keratinocyte proliferation, % Increase Over Control ([1]; Table 7, single agent alone, 0.625 mM): 55%
Keratinocyte proliferation, % Increase Over Control ([1]; Table 7, single agent alone, 1.25 mM): 55%
Keratinocyte proliferation, % Increase Over Control ([1]; Table 7, single agent alone, 2.5 mM): 18%
Keratinocyte proliferation, % Increase Over Control ([1]; Table 7, single agent alone, 5.0 mM): 0%

Collagen Synthesis, Maximum fold over Control (procollagen 1): 2.8 fold
SMILES: O=C(O)CCC(=O)O [Succinate]
Keratinocyte proliferation, % Increase Over Control ([1]; Table 8, single agent alone, 0.156 mM): 48%
Keratinocyte proliferation, % Increase Over Control ([1]; Table 8, single agent alone, 0.313 mM): 48%
Keratinocyte proliferation, % Increase Over Control ([1]; Table 8, single agent alone, 0.625 mM): 39%
Keratinocyte proliferation, % Increase Over Control ([1]; Table 8, single agent alone, 1.25 mM): 51%
Keratinocyte proliferation, % Increase Over Control ([1]; Table 8, single agent alone, 2.5 mM): 58%
Keratinocyte proliferation, % Increase Over Control ([1]; Table 8, single agent alone, 5.0 mM): 0%
